According to PMC9230548, “Synthesis and Biological Evaluation of Novel Synthetic Indolone Derivatives as Anti-Tumor Agents Targeting p53-MDM2 and p53-MDMX” (Molecules, 2022):
Where two headings read alike, the source gives them in different places.

Legend:
MDMX = target: T1, MDMX (Homo sapiens, UniProt O15151); experiment: fluorescence polarization assay, MDMX binding
T1 sequence (O15151 1-490): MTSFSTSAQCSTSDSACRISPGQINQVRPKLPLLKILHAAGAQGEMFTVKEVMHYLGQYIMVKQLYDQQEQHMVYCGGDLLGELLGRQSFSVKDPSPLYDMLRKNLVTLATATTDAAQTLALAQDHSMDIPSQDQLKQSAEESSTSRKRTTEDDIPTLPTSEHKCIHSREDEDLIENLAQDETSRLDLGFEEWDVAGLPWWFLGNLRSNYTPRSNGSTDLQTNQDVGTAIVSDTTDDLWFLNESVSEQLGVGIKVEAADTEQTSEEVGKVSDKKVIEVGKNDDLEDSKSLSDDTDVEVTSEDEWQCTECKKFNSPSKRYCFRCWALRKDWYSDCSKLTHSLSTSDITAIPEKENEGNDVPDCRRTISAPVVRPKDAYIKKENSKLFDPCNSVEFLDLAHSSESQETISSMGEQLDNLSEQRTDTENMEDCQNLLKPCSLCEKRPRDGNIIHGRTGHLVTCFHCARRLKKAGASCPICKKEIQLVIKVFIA

MDM2 = MDM2 (Homo sapiens, UniProt Q00987); experiment: fluorescence polarization assay, MDM2 binding
Chain of MDM2 (Q00987 whole entry): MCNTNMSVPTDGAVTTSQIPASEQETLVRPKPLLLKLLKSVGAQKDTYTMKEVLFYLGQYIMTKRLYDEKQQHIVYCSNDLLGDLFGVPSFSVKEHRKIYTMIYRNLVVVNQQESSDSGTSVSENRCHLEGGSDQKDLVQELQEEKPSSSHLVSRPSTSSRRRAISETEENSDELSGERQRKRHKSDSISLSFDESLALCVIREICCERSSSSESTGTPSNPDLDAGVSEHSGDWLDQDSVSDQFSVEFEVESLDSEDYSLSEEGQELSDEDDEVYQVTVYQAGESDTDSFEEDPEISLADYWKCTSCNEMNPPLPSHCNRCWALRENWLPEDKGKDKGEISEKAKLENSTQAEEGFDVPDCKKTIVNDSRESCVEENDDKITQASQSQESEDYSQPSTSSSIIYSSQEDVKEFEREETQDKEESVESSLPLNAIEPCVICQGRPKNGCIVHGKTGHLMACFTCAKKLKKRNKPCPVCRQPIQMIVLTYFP

[1] = read-out: Ki (μM) ± SD MDMX, fluorescence polarization, PMDM-F peptide, pH 7.5
[2] = read-out: Ki (μM) ± SD MDM2, fluorescence polarization, PMDM-F peptide, pH 7.5

melting point [°C]	Ki (MDMX) [µM]	Ki (MDM2) [µM]	Ki (MDMX; [1]) [µM]	Ki (MDM2; [2]) [µM]	Structure (SMILES)
128.2 to 129.7	> 50	20.2 ± 3.05			Cc1cccc(C(=O)N2C(=O)/C(=C/c3ccccc3Cl)c3ccccc32)c1 [Compound B5, (E)-3-(2-chlorobenzylidene)-1-(3-methylbenzoyl)indolin-2-one]
221.3 to 222.7	> 50	7.86 ± 1.34			O=C1/C(=C/c2ccccc2Cl)c2ccccc2N1C(=O)c1ccc(Cl)cc1 [Compound B3, (E)-1-(4-chlorobenzoyl)-3-(2-chlorobenzylidene)indolin-2-one]
108.3 to 109.7	> 50	14.9 ± 2.37			O=C1/C(=C/c2cccc(Cl)c2)c2ccccc2N1C(=O)c1ccccc1Cl [Compound B7, (E)-1-(2-chlorobenzoyl)-3-(3-chlorobenzylidene)indolin-2-one]
145.3 to 146.9	> 50	22.4 ± 3.64			Cc1ccc(C(=O)N2C(=O)/C(=C/c3ccccc3Cl)c3ccccc32)cc1 [Compound B6, (E)-3-(2-chlorobenzylidene)-1-(4-methylbenzoyl)indolin-2-one]
103.5 to 104.8	> 50	15.9 ± 1.96			O=C1/C(=C/c2cccc(Cl)c2)c2ccccc2N1C(=O)c1ccc(Cl)cc1 [Compound B9, (E)-1-(4-chlorobenzoyl)-3-(3-chlorobenzylidene)indolin-2-one]
214.5 to 216.2	> 50	10.2 ± 2.01			O=C1/C(=C/c2ccccc2Cl)c2ccccc2N1C(=O)c1ccccc1Cl [Compound B1, (E)-1-(2-chlorobenzoyl)-3-(2-chlorobenzylidene)indolin-2-one]
141.3 to 142.3	> 50	12.5 ± 1.04			O=C1/C(=C/c2ccc(Cl)cc2)c2ccccc2N1C(=O)c1cccc(Cl)c1 [Compound B10, (E)-1-(3-chlorobenzoyl)-3-(4-chlorobenzylidene)indolin-2-one]
219 to 220.8	> 50	8.43 ± 1.58			O=C1/C(=C/c2ccccc2Cl)c2ccccc2N1C(=O)c1cccc(Cl)c1 [Compound B2, (E)-1-(3-chlorobenzoyl)-3-(2-chlorobenzylidene)indolin-2-one]
112.4 to 114	> 50	8.63 ± 1.55			O=C1/C(=C/c2cccc(Cl)c2)c2ccccc2N1C(=O)c1cccc(Cl)c1 [Compound B8, (E)-1-(3-chlorobenzoyl)-3-(3-chlorobenzylidene)indolin-2-one]
111.2 to 112.8	> 50	16.4 ± 2.77			Cc1ccccc1C(=O)N1C(=O)/C(=C/c2ccccc2Cl)c2ccccc21 [Compound B4, (E)-3-(2-chlorobenzylidene)-1-(2-methylbenzoyl)indolin-2-one]

The remaining lines, values behind:

Structure (SMILES)	melting point [°C]	Ki (MDMX) [µM]	Ki (MDM2) [µM]	Ki (MDMX; [1]) [µM]	Ki (MDM2; [2]) [µM]
O=C1/C(=C/c2ccccc2Cl)c2ccccc2N1S(=O)(=O)c1ccccc1 [Compound A1, (E)-3-(2-chlorobenzylidene)-1-(phenylsulfonyl)indolin-2-one]	138.2 to 139.9	> 50	4.39 ± 0.82		
Cc1cccc(S(=O)(=O)N2C(=O)/C(=C/c3ccc(Cl)cc3)c3ccccc32)c1 [Compound A25, (E)-3-(4-chlorobenzylidene)-1-(m-tolylsulfonyl)indolin-2-one]				> 50	4.93 ± 0.47
Cc1ccccc1S(=O)(=O)N1C(=O)/C(=C/c2ccccc2Cl)c2ccccc21 [Compound A2, (E)-3-(2-chlorobenzylidene)-1-(o-tolylsulfonyl)indolin-2-one]		> 50	7.23 ± 1.03		
O=C1/C(=C/c2cccc(Cl)c2)c2ccc(Cl)cc2N1S(=O)(=O)c1cccc(Cl)c1 [Compound A30, (E)-6-chloro-3-(3-chlorobenzylidene)-1-((3-chlorophenyl)sulfonyl)indolin-2-one]	132.6 to 133.8			29 ± 2.18	1.39 ± 0.15
Cc1cccc(S(=O)(=O)N2C(=O)/C(=C/c3ccccc3Cl)c3ccccc32)c1 [Compound A3, (E)-3-(2-chlorobenzylidene)-1-(m-tolylsulfonyl)indolin-2-one]		> 50	5.58 ± 0.99		
Cc1ccc(S(=O)(=O)N2C(=O)/C(=C/c3ccccc3Cl)c3ccccc32)cc1 [Compound A4, (E)-3-(2-chlorobenzylidene)-1-tosylindolin-2-one]	148.9 to 150.5	> 50	10.2 ± 1.45		
O=C1/C(=C/c2ccccc2Cl)c2ccccc2N1S(=O)(=O)c1ccccc1Cl [Compound A5, (E)-3-(2-chlorobenzylidene)-1-((2-chlorophenyl)sulfonyl)indolin-2-one]	157.2 to 158.1	42.1 ± 6.35	3.43 ± 0.57		
Cc1ccccc1S(=O)(=O)N1C(=O)/C(=C/c2cccc(Cl)c2)c2ccccc21 [Compound A9, (E)-3-(3-chlorobenzylidene)-1-(o-tolylsulfonyl)indolin-2-one]	140.9 to 143.2			> 50	6.95 ± 0.97
O=C1/C(=C/c2cccc(Cl)c2)c2ccccc2N1S(=O)(=O)c1cccc([N+](=O)[O-])c1 [Compound A22, (E)-3-(3-chlorobenzylidene)-1-((3-nitrophenyl)sulfonyl)indolin-2-one]	195.3 to 197	13.6 ± 1.47	1.39 ± 0.21		
O=C1/C(=C/c2ccc(Cl)cc2)c2ccccc2N1S(=O)(=O)c1ccccc1 [Compound A28, (E)-3-(4-chlorobenzylidene)-1-(phenylsulfonyl)indolin-2-one]		37.4 ± 3.57	2.18 ± 0.29		
O=C1/C(=C/c2ccccc2Cl)c2ccccc2N1S(=O)(=O)c1ccc(Cl)cc1 [Compound A7, (E)-3-(2-chlorobenzylidene)-1-((4-chlorophenyl)sulfonyl)indolin-2-one]	172.4 to 173.1	20.4 ± 2.62	1.53 ± 0.19		
Cc1ccc(S(=O)(=O)N2C(=O)/C(=C/c3ccc(Cl)cc3)c3ccccc32)cc1 [Compound A26, (E)-3-(4-chlorobenzylidene)-1-tosylindolin-2-one]	134.1 to 135.6			> 50	4.68 ± 0.39
COc1ccc(S(=O)(=O)N2C(=O)/C(=C/c3cccc(Cl)c3)c3ccccc32)cc1 [Compound A23, (E)-3-(3-chlorobenzylidene)-1-((4-methoxyphenyl)sulfonyl)indolin-2-one]	175.1 to 176.7	42.2 ± 4.73	3.77 ± 0.45		
Cc1ccc(S(=O)(=O)N2C(=O)/C(=C/c3cccc(Cl)c3)c3ccccc32)cc1 [Compound A11, (E)-3-(3-chlorobenzylidene)-1-tosylindolin-2-one]	136.3 to 138.1	> 50	5.19 ± 1.25		
O=C1/C(=C/c2cccc(Cl)c2)c2ccccc2N1S(=O)(=O)c1ccccc1 [Compound A8, (E)-3-(3-chlorobenzylidene)-1-(phenylsulfonyl)indolin-2-one]	115.1 to 117.3	10.3 ± 1.45	1.47 ± 0.15		
Cc1ccccc1S(=O)(=O)N1C(=O)/C(=C/c2ccc(Cl)cc2)c2ccccc21 [Compound A24, (E)-3-(4-chlorobenzylidene)-1-(o-tolylsulfonyl)indolin-2-one]	155.2 to 157.1			34.7 ± 4.02	3.17 ± 0.37
